# Experimental data taken from patent US12077503B2, “Substituted cyclic amides and their use as herbicides” (FMC CORPORATION, priority 2015, dated 2024).
# Read-outs that look alike come from different tables or passages of the source.
# Experiments:
# Test in all cases: Test A postemergence
# Type in all cases: in vivo
# [1] = test system: Galium (catchweed bedstraw, Galium aparine); settings: Galium, post-emergence, 240 h; for pest or weed control at 125 g/ha: 125 g ai/ha; for pest or weed control at 500 g/ha: 500 g ai/ha
# Summary of the method: (§1)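 Seeds sprayed preemergence with a directed soil spray, or plants at 2 to 10 cm height and one- to two-leaf stage sprayed postemergence, with test chemicals in a non-phytotoxic solvent mixture containing surfactant, in loam soil–sand blend. Injury rated visually against untreated controls after about 10 d in greenhouse, 0 (no effect) to 100 (complete control).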
# [2] = test system: Kochia (Kochia scoparia); settings: Bassia scoparia, post-emergence, 240 h; for pest or weed control at 125 g/ha: 125 g ai/ha; for pest or weed control at 500 g/ha: 500 g ai/ha
# Summary of the method: as §1
# [3] = test system: barnyardgrass (Echinochloa crus-galli); settings: Echinochloa crus-galli, post-emergence, 240 h; for pest or weed control at 125 g/ha: 125 g ai/ha; for pest or weed control at 500 g/ha: 500 g ai/ha
# Summary of the method: as §1
# [4] = test system: corn (Zea mays); settings: Zea mays, post-emergence, 240 h; for plant injury at 125 g/ha / Corn plant response rating (crop injury, 0 = no effect, 100 = complete kill) at 125 g/ha: 125 g ai/ha; for plant injury at 125 g/ha: read-out: Corn plant response rating (0 to 100 scale); for Corn plant response rating (crop injury, 0 = no effect, 100 = complete kill) at 500 g/ha / plant injury at 500 g/ha: 500 g ai/ha; for Corn plant response rating (crop injury, 0 = no effect, 100 = complete kill) at 500 g/ha: visual injury, approx. 10 d; for Corn plant response rating (crop injury, 0 = no effect, 100 = complete kill) at 500 g/ha / Corn plant response rating (crop injury, 0 = no effect, 100 = complete kill) at 125 g/ha: 0 to 100 scale (0 no effect, 100 complete control); for plant injury at 500 g/ha: 0 to 100 scale, 0 is no effect, 100 is complete control, read-out: Corn plant response rating; for Corn plant response rating (crop injury, 0 = no effect, 100 = complete kill) at 125 g/ha: visual injury after approximately 10 d
# Summary of the method: as §1
# [5] = test system: ragweed (common ragweed, Ambrosia elatior); settings: Ambrosia artemisiifolia, post-emergence, 240 h; for pest or weed control at 125 g/ha: 125 g ai/ha; for pest or weed control at 500 g/ha: 500 g ai/ha
# Summary of the method: as §1
# [6] = Postemergence, visual rating about 10 d after treatment, read-out: Galium plant response rating (0 to 100 scale)
# [7] = Postemergence, visual injury, 0 to 100 scale (0 no effect, 100 complete control), approx. 10 d, read-out: Plant response rating, Galium
# [8] = Postemergence, visual rating about 10 d after treatment, read-out: Kochia plant response rating (0 to 100 scale)
# [9] = Postemergence, visual injury, 0 to 100 scale (0 no effect, 100 complete control), approx. 10 d, read-out: Plant response rating, Kochia
# [10] = Postemergence, visual rating about 10 d after treatment, read-out: Barnyardgrass plant response rating (0 to 100 scale, 0 no effect, 100 complete control)
# [11] = Postemergence, visual injury, 0 to 100 scale (0 no effect, 100 complete control), approx. 10 d, read-out: Plant response rating, Barnyardgrass
# [12] = Postemergence, visual rating about 10 d after treatment
# [13] = Postemergence, visual rating about 10 d after treatment, read-out: Ragweed plant response rating (0 to 100 scale)
# [14] = Postemergence, visual injury, 0 to 100 scale (0 no effect, 100 complete control), approx. 10 d, read-out: Plant response rating, Ragweed
# [15] = postemergence, visual injury vs untreated controls after approx. 10 d, 0 = no effect, 100 = complete control, read-out: Galium plant response rating (0 to 100 scale)
# [16] = postemergence, 0 to 100 scale, 0 is no effect, 100 is complete control, read-out: Galium plant response rating
# [17] = postemergence, visual injury vs untreated controls after approx. 10 d, 0 = no effect, 100 = complete control, read-out: Kochia plant response rating (0 to 100 scale)
# [18] = postemergence, 0 to 100 scale, 0 is no effect, 100 is complete control, read-out: Kochia plant response rating
# [19] = postemergence, visual injury vs untreated controls after approx. 10 d, 0 = no effect, 100 = complete control, read-out: Barnyardgrass plant response rating (0 to 100 scale)
# [20] = postemergence, 0 to 100 scale, 0 is no effect, 100 is complete control, read-out: Barnyardgrass plant response rating
# [21] = postemergence, visual injury vs untreated controls after approx. 10 d, 0 = no effect, 100 = complete control
# [22] = postemergence, visual injury vs untreated controls after approx. 10 d, 0 = no effect, 100 = complete control, read-out: Ragweed plant response rating (0 to 100 scale)
# [23] = postemergence, 0 to 100 scale, 0 is no effect, 100 is complete control, read-out: Ragweed plant response rating
# [24] = postemergence, visual injury after approximately 10 d, 0 to 100 scale (0 no effect, 100 complete control), read-out: Plant response rating, Galium
# [25] = postemergence, visual injury after approximately 10 d, 0 to 100 scale (0 no effect, 100 complete control), read-out: Plant response rating, Kochia
# [26] = postemergence, visual injury after approximately 10 d, 0 to 100 scale (0 no effect, 100 complete control), read-out: Plant response rating, Barnyardgrass
# [27] = postemergence, visual injury after approximately 10 d, 0 to 100 scale (0 no effect, 100 complete control), read-out: Plant response rating, Ragweed
SMILES,"pest or weed control at 125 g/ha [1, 6] [%]","pest or weed control at 500 g/ha [1, 7] [%]","pest or weed control at 125 g/ha [2, 8] [%]","pest or weed control at 500 g/ha [2, 9] [%]","pest or weed control at 125 g/ha [3, 10] [%]","pest or weed control at 500 g/ha [3, 11] [%]","plant injury at 125 g/ha [4, 12] [%]","Corn plant response rating (crop injury, 0 = no effect, 100 = complete kill) at 500 g/ha ([4]; Postemergence) [%]","pest or weed control at 125 g/ha [5, 13] [%]","pest or weed control at 500 g/ha [5, 14] [%]","pest or weed control at 125 g/ha [1, 24] [%]","pest or weed control at 125 g/ha [2, 25] [%]","pest or weed control at 125 g/ha [3, 26] [%]","Corn plant response rating (crop injury, 0 = no effect, 100 = complete kill) at 125 g/ha ([4]; postemergence) [%]","pest or weed control at 125 g/ha [5, 27] [%]",further results
CSc1ccccc1NC(=O)[C@H]1C(=O)NC[C@@H]1c1cc(C)cc(F)c1 [Compound 1306],20,40,0,60,20,90,0,0,0,0,–,–,–,–,–,–
CSc1ccccc1NC(=O)[C@H]1C(=O)N(C)C[C@@H]1c1ccc(C#N)cc1 [Compound 1230],–,–,–,–,–,–,–,–,–,–,–,–,–,–,–,"pest or weed control at 125 g/ha [1, 15]: 20%; pest or weed control at 500 g/ha [1, 16]: 60%; pest or weed control at 125 g/ha [2, 17]: 30%; pest or weed control at 500 g/ha [2, 18]: 70%; pest or weed control at 125 g/ha [3, 19]: 30%; pest or weed control at 500 g/ha [3, 20]: 70%; plant injury at 125 g/ha [4, 21]: 0%; plant injury at 500 g/ha ([4]; postemergence): 0%; pest or weed control at 125 g/ha [5, 22]: 0%; pest or weed control at 500 g/ha [5, 23]: 0%"
O=C1NC[C@H](c2cc(F)c(F)c(F)c2)[C@H]1C(=O)Nc1ccc(F)c(F)c1F [Compound 756],–,–,–,–,–,–,–,–,–,–,50,20,90,50,20,–
CN1CC[C@H](c2ccc(C(F)(F)F)cc2)[C@@H](C(=O)Nc2ccccc2C(F)(F)F)C1=O [Compound 1224],–,–,–,–,–,–,–,–,–,–,–,–,–,–,–,"pest or weed control at 125 g/ha [1, 15]: 0%; pest or weed control at 500 g/ha [1, 16]: 40%; pest or weed control at 125 g/ha [2, 17]: 0%; pest or weed control at 500 g/ha [2, 18]: 0%; pest or weed control at 125 g/ha [3, 19]: 70%; pest or weed control at 500 g/ha [3, 20]: 90%; plant injury at 125 g/ha [4, 21]: 0%; plant injury at 500 g/ha ([4]; postemergence): 0%; pest or weed control at 125 g/ha [5, 22]: 0%; pest or weed control at 500 g/ha [5, 23]: 0%"
CN1C[C@H](c2cc(F)cc(F)c2)[C@@H](C(=O)Nc2ccc(F)cc2C(F)(F)F)C1=O [Compound 758],–,–,–,–,–,–,–,–,–,–,40,0,70,20,0,–
O=C1NC[C@H](c2cccc3c2OC(F)(F)O3)[C@H]1C(=O)Nc1ccccc1F [Compound 754],–,–,–,–,–,–,–,–,–,–,0,0,60,0,0,–
CN1C[C@H](c2cc(F)cc(F)c2)[C@@H](C(=O)Nc2c(F)cccc2F)C1=O [Compound 759],–,–,–,–,–,–,–,–,–,–,0,0,70,0,0,–
N#Cc1cc([C@H]2CNC(=O)[C@]2(O)C(=O)Nc2cccc(F)c2F)ccc1F [Compound 1374],0,0,0,0,0,50,0,0,0,0,–,–,–,–,–,–
COc1cc([C@H]2CN(C)C(=O)[C@@H]2C(=O)Nc2ccccc2S(C)(=O)=O)ccc1F [Compound 1302],0,30,0,20,60,90,0,0,0,0,–,–,–,–,–,–
